The values that follow come from patent US20260092071A1, “COMPOUNDS AND COMPOSITIONS AS SMARCA2/4 DEGRADERS AND USES THEREOF” (REGENTS OF THE UNIVERSITY OF MICHIGAN, priority 2022, published 2026).

Read-outs that look alike come from different tables or passages of the source.

One test deals with SMARCA4 (Homo sapiens, UniProt P51532). In words: HiBit assay in engineered HT1080 CRISPR knock-in cell, 6 hrs (B series), SMARCA4. The class given is cell-based. As to conditions: for DC50: read-out: SMARC A4 HT1080 HiBit DC50. Put shortly: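 HT1080 CRISPR knock-in cells carrying the HiBiT tag were seeded onto compounds (final DMSO 0.1%) and incubated 6 hrs at 37° C, 5% CO2. Remaining tagged protein was detected by lytic HiBiT luminescence after adding LgBiT protein and substrate, with LgBiT-free wells serving as negative control.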
Chain of SMARCA4 (P51532 whole entry): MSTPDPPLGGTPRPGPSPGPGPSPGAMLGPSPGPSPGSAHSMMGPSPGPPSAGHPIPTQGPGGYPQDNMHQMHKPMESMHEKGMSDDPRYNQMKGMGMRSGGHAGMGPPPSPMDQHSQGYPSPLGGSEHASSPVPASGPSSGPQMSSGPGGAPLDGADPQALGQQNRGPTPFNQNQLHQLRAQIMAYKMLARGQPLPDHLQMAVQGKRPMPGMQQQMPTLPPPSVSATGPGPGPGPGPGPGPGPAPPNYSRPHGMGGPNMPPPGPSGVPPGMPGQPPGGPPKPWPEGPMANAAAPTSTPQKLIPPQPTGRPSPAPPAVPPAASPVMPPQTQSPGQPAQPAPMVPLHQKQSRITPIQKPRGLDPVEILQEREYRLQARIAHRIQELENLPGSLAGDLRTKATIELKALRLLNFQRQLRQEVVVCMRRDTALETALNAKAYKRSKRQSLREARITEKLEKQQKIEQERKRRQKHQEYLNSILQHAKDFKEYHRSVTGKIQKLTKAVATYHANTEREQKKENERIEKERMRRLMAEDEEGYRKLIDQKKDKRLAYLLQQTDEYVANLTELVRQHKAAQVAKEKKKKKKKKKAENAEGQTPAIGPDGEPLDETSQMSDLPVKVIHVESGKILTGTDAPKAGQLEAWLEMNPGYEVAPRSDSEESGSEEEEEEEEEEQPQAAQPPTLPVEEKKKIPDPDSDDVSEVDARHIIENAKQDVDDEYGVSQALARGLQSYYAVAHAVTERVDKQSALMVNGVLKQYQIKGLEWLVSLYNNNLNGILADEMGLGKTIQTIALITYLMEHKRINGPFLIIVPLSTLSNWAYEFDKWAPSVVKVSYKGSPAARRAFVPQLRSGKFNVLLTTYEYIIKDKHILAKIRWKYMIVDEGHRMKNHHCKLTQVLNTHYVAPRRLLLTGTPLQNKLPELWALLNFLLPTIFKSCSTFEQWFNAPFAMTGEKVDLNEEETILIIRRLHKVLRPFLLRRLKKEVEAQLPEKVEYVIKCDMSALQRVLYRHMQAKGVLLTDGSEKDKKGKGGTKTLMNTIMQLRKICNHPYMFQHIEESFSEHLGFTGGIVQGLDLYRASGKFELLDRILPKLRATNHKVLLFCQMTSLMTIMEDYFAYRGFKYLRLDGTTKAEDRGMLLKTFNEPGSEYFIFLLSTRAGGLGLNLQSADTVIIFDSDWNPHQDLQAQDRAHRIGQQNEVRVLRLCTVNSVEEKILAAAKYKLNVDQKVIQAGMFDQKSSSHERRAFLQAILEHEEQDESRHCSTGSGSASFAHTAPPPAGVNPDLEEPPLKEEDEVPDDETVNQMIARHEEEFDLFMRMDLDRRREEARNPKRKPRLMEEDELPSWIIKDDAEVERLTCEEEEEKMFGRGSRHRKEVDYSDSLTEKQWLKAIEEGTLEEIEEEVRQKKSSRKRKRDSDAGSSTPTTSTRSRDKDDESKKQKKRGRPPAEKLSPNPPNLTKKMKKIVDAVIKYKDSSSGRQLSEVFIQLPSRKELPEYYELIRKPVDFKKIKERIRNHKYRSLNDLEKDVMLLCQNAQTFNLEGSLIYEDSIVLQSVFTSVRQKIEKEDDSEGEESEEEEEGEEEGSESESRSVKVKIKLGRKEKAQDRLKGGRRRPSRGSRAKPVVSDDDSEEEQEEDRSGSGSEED

In another test the target is SMARCA2 (Homo sapiens, UniProt P51531). In words: HiBit assay in engineered HT1080 CRISPR knock-in cell, 6 hrs (B series), SMARCA2. The class given is cell-based. As to conditions: 6 hrs incubation; for DC50: read-out: SMARC A2 HT1080 HiBit DC50; for Dmax: HT-1080, HT1080 CRISPR knock-in cells, read-out: SMARC A2 HT1080 HiBit Dmax (%). Put shortly: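 Compounds were dispensed first, then HT1080 knock-in cells added and incubated for 6 hrs at 37° C. Next, detection reagent containing LgBiT and lytic substrate was added. Plates were shaken 10 min and centrifuged, and luminescence was measured.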
Chain of SMARCA2 (P51531 whole entry): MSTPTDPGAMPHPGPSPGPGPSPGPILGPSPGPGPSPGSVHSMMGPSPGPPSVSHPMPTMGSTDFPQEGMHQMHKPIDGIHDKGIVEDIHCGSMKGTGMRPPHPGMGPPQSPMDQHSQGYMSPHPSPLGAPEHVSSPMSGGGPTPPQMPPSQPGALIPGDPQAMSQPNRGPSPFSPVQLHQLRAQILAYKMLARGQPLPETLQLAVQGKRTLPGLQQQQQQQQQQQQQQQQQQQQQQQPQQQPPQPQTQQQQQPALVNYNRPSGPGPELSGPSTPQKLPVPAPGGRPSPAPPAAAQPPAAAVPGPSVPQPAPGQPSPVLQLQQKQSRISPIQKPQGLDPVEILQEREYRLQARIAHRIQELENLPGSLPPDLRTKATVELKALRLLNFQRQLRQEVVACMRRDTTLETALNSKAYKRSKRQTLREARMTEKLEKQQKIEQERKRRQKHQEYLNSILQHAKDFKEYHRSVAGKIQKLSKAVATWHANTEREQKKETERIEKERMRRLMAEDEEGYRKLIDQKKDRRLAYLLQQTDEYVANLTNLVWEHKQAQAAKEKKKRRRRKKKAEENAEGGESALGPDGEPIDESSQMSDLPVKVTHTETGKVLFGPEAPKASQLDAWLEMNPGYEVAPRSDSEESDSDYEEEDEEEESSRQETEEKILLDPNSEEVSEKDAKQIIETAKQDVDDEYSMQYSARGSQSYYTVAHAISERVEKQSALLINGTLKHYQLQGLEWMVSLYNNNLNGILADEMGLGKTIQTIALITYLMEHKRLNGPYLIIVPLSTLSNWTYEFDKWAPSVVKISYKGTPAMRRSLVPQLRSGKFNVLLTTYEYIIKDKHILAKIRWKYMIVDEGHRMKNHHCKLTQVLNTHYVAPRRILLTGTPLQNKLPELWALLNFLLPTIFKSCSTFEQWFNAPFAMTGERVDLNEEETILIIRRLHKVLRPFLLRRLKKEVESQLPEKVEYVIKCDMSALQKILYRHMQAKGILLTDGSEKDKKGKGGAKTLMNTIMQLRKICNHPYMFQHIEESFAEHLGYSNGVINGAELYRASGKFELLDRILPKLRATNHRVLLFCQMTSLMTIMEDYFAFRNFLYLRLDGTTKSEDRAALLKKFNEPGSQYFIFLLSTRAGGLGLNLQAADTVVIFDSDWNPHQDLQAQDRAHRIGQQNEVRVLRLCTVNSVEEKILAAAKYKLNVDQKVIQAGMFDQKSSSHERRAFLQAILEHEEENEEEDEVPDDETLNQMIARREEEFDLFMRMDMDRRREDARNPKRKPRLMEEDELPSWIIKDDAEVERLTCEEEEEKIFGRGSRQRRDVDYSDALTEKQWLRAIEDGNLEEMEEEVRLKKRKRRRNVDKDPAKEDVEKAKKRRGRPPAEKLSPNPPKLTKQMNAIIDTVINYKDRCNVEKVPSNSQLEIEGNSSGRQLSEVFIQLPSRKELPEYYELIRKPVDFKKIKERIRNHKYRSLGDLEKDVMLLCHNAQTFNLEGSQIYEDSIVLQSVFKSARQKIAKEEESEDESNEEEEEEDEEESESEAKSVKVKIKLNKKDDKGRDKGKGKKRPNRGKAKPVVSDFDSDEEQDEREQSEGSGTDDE

The mark [1] stands for this setting: HT1080 CRISPR knock-in cells, 6 hrs incubation.
Setting [2] is: HT-1080, HT1080 CRISPR knock-in cells, 6 hrs incubation, read-out: SMARC A4 HT1080 HiBit Dmax(%).

For the molecule `Cc1ncsc1-c1ccc([C@H](C)NC(=O)[C@@H]2C[C@@H](O)CN2C(=O)[C@@H](c2cc(OCCn3cc(-c4ccc5c(c4)C(C)(C)c4nc(=O)c6c(Cl)cccc6n4-5)cn3)no2)C(C)C)cc1` [Compound B52, (2S,4R)-1-((R)-2-(3-(2-(4-(4-chloro-7,7-dimethyl-5-oxo-5,7-dihydroindolo[1,2-a]quinazolin-9-yl)-1H-pyrazol-1-yl)ethoxy)isoxazol-5-yl)-3-methylbutanoyl)-4-hydroxy-N-((S)-1-(4-(4-methylthiazol-5-yl)phenyl)ethyl)pyrrolidine-2-carboxamide], the figures for the DC50 at SMARCA4 (setting [1]) and on SMARCA2 (HT1080 CRISPR knock-in cells) were over 1000 nM and under 100 nM, respectively. Moreover, the Dmax on SMARCA4 (setting [2]) was under 50%; at SMARCA2, 70 to 90%.
With `Cc1ncsc1-c1ccc([C@H](C)NC(=O)[C@@H]2C[C@@H](O)CN2C(=O)[C@H](C(C)C)n2cc([C@H]3CC[C@H](CN4CCN(c5ccc6c(c5)-n5c(nc(=O)c7c(Cl)cccc75)C6(C)C)CC4)CC3)nn2)cc1` [Compound B120, (2S,4R)-1-((S)-2-(4-((1r,4S)-4-((4-(4-chloro-7,7-dimethyl-5-oxo-5,7-dihydroindolo[1,2-a]quinazolin-10-yl)piperazin-1-yl)methyl)cyclohexyl)-1H-1,2,3-triazol-1-yl)-3-methylbutanoyl)-4-hydroxy-N-((S)-1-(4-(4-methylthiazol-5-yl)phenyl)ethyl)pyrrolidine-2-carboxamide], the DC50 on SMARCA4 (setting [1]) and on SMARCA2 (HT1080 CRISPR knock-in cells) was under 100 nM in each case. The Dmax is 70 to 90% on SMARCA4 (setting [2]) and over 90% at SMARCA2.
Turning to `Cc1ncsc1-c1ccc([C@H](CN2CCOCC2)NC(=O)[C@@H]2C[C@@H](O)CN2C(=O)[C@@H](c2cc(O[C@H]3CC[C@H](CN4CCC(c5ccc6c(c5)-n5c(nc(=O)c7c(Cl)cccc75)C6(C)C)CC4)CC3)no2)C(C)C)cc1` [Compound B157, (2S,4R)-1-((R)-2-(3-(((1r,4R)-4-((4-(4-chloro-7,7-dimethyl-5-oxo-5,7-dihydroindolo[1,2-a]quinazolin-10-yl)piperidin-1-yl)methyl)cyclohexyl)oxy)isoxazol-5-yl)-3-methylbutanoyl)-4-hydroxy-N-((R)-1-(4-(4-methylthiazol-5-yl)phenyl)-2-morpholinoethyl)pyrrolidine-2-carboxamide], the DC50 on SMARCA4 (setting [1]) and at SMARCA2 (HT1080 CRISPR knock-in cells) was under 100 nM throughout. Moreover, the Dmax was over 90% at SMARCA4 (HT-1080, read-out: SMARC A4 HT1080 HiBit Dmax(%), HT1080 CRISPR knock-in cells, 6 hrs incubation) and over 90% on SMARCA2.
As for `Cc1ncsc1-c1ccc([C@H](C)NC(=O)[C@@H]2C[C@@H](O)CN2C(=O)[C@@H](NC(=O)c2cccc(CN3CCC(c4ccc5c(c4)C(C)(C)c4nc(=O)c6c(Cl)cccc6n4-5)CC3)c2)C(C)(C)C)cc1` [Compound B16, (2S,4R)-1-((S)-2-(3-((4-(4-chloro-7,7-dimethyl-5-oxo-5,7-dihydroindolo[1,2-a]quinazolin-9-yl)piperidin-1-yl)methyl)benzamido)-3,3-dimethylbutanoyl)-4-hydroxy-N—((S)-1-(4-(4-methylthiazol-5-yl)phenyl)ethyl)pyrrolidine-2-carboxamide], the DC50 at SMARCA4 (setting [1]) and at SMARCA2 (HT1080 CRISPR knock-in cells) was under 100 nM throughout. Also, the Dmax on SMARCA4 (setting [2]) is 70 to 90%; on SMARCA2 it was over 90%.
For the molecule `Cc1ncsc1-c1ccc([C@H](C)NC(=O)[C@@H]2C[C@@H](O)CN2C(=O)[C@@H](NC(=O)C2CC(N3CCC(c4ccc5c(c4)C(C)(C)c4nc(=O)c6c(Cl)cccc6n4-5)CC3)C2)C(C)(C)C)cc1` (stereo partly drawn) [Compound B14, (2S,4R)-1-((2S)-2-(3-(4-(4-chloro-7,7-dimethyl-5-oxo-5,7-dihydroindolo[1,2-a]quinazolin-9-yl)piperidin-1-yl)cyclobutane-1-carboxamido)-3,3-dimethylbutanoyl)-4-hydroxy-N-((S)-1-(4-(4-methylthiazol-5-yl)phenyl)ethyl)pyrrolidine-2-carboxamide], on SMARCA4 (setting [1]), the “SMARC A4 HT1080 HiBit Dmax(%)” value was “B (B (70-90% degradation))” and the DC50 is 100 to 500 nM. Besides, on SMARCA2 (HT1080 CRISPR knock-in cells), the “SMARC A2 HT1080 HiBit Dmax (%)” value is listed as “A (A (>90% degradation))” and the DC50 was under 100 nM.
Consider `Cc1ncsc1-c1ccc([C@H](C)NC(=O)[C@@H]2C[C@@H](O)CN2C(=O)[C@@H](c2cc(OCCCN3CCC(c4ccc5c(c4)C(C)(C)c4nc(=O)c6c(Cl)cccc6n4-5)CC3)no2)C(C)C)cc1` [Compound B11, (2S,4R)-1-((R)-2-(3-(3-(4-(4-chloro-7,7-dimethyl-5-oxo-5,7-dihydroindolo[1,2-a]quinazolin-9-yl)piperidin-1-yl)propoxy)isoxazol-5-yl)-3-methylbutanoyl)-4-hydroxy-N-((S)-1-(4-(4-methylthiazol-5-yl)phenyl)ethyl)pyrrolidine-2-carboxamide], for which the DC50 on SMARCA4 (setting [1]) and on SMARCA2 (HT1080 CRISPR knock-in cells) was under 100 nM throughout. The Dmax on SMARCA4 (setting [2]) and at SMARCA2 was over 90% in each case.
On to `Cc1cc(C(C(=O)N2C[C@H](O)C[C@H]2C(=O)N[C@@H](CN2CCC(c3cccc4c3C(C)(C)c3nc(=O)c5c(Cl)cccc5n3-4)CC2)c2ccc(-c3scnc3C)cc2)C(C)C)on1` (stereo partly drawn) [Compound B153, (2S,4R)-N-((R)-2-(4-(4-chloro-7,7-dimethyl-5-oxo-5,7-dihydroindolo[1,2-a]quinazolin-8-yl)piperidin-1-yl)-1-(4-(4-methylthiazol-5-yl)phenyl)ethyl)-4-hydroxy-1-(3-methyl-2-(3-methylisoxazol-5-yl)butanoyl)pyrrolidine-2-carboxamide], for which the DC50 on SMARCA4 (setting [1]) and at SMARCA2 (HT1080 CRISPR knock-in cells) was under 100 nM in each case. Also, the Dmax at SMARCA4 (setting [2]) and at SMARCA2 was 70 to 90% each time.
`Cc1ncsc1-c1ccc([C@H](C)NC(=O)[C@@H]2C[C@@H](O)CN2C(=O)[C@@H](NC(=O)CN2CCC(c3ccc4c(c3)C(C)(C)c3nc(=O)c5c(Br)cccc5n3-4)CC2)C(C)(C)C)cc1` [Compound B5, (2S,4R)-1-((S)-2-(2-(4-(4-bromo-7,7-dimethyl-5-oxo-5,7-dihydroindolo[1,2-a]quinazolin-9-yl)piperidin-1-yl)acetamido)-3,3-dimethylbutanoyl)-4-hydroxy-N—((S)-1-(4-(4-methylthiazol-5-yl)phenyl)ethyl)pyrrolidine-2-carboxamide]: the DC50 at SMARCA4 (setting [1]) and at SMARCA2 (HT1080 CRISPR knock-in cells) was under 100 nM each time. For the same molecule, the Dmax at SMARCA4 (setting [2]) and at SMARCA2 was over 90% throughout.
Take `C[C@H](NC(=O)[C@@H]1C[C@@H](O)CN1C(=O)[C@@H](n1cc([C@H]2CC[C@H](CN3CCN(c4ccc5c(c4)-n4c(nc(=O)c6c(Cl)cccc64)C5(C)C)CC3)CC2)nn1)C(C)(C)C)c1ccc(-c2ccnn2C)cc1` [Compound B125, (2S,4R)-1-((S)-2-(4-((1r,4S)-4-((4-(4-chloro-7,7-dimethyl-5-oxo-5,7-dihydroindolo[1,2-a]quinazolin-10-yl)piperazin-1-yl)methyl)cyclohexyl)-1H-1,2,3-triazol-1-yl)-3,3-dimethylbutanoyl)-4-hydroxy-N-((S)-1-(4-(1-methyl-1H-pyrazol-5-yl)phenyl)ethyl)pyrrolidine-2-carboxamide]: the DC50 at SMARCA4 (setting [1]) and at SMARCA2 (HT1080 CRISPR knock-in cells) was under 100 nM each time. Further, the Dmax is 70 to 90% on SMARCA4 (setting [2]) and over 90% at SMARCA2.
With `Cc1ncsc1-c1ccc([C@H](C)NC(=O)[C@@H]2C[C@@H](O)CN2C(=O)[C@H](C(C)C)n2cc([C@H]3CC[C@H](CN4CCC(c5ccc6c(c5)-n5c(nc(=O)c7c(Cl)cccc75)C6(C)C)CC4)CC3)nn2)cc1` [Compound B41, (2S,4R)-1-((S)-2-(4-((1r,4S)-4-((4-(4-chloro-7,7-dimethyl-5-oxo-5,7-dihydroindolo[1,2-a]quinazolin-10-yl)piperidin-1-yl)methyl)cyclohexyl)-1H-1,2,3-triazol-1-yl)-3-methylbutanoyl)-4-hydroxy-N-((S)-1-(4-(4-methylthiazol-5-yl)phenyl)ethyl)pyrrolidine-2-carboxamide], the DC50 at SMARCA4 (setting [1]) and at SMARCA2 (HT1080 CRISPR knock-in cells) was under 100 nM each time. For the same molecule, the Dmax at SMARCA4 (setting [2]) is 70 to 90%; on SMARCA2, over 90%.
For the molecule `Cc1ncsc1-c1ccc2c(c1)CC[C@@H]2NC(=O)[C@@H]1C[C@@H](O)CN1C(=O)[C@@H](n1cc([C@H]2CC[C@H](CN3CCC(c4ccc5c(c4)-n4c(nc(=O)c6c(Cl)cccc64)C5(C)C)CC3)CC2)nn1)C(C)(C)C` [Compound B123, (2S,4R)-1-((S)-2-(4-((1r,4S)-4-((4-(4-chloro-7,7-dimethyl-5-oxo-5,7-dihydroindolo[1,2-a]quinazolin-10-yl)piperidin-1-yl)methyl)cyclohexyl)-1H-1,2,3-triazol-1-yl)-3,3-dimethylbutanoyl)-4-hydroxy-N-((S)-5-(4-methylthiazol-5-yl)-2,3-dihydro-1H-inden-1-yl)pyrrolidine-2-carboxamide], the DC50 is 100 to 500 nM at SMARCA4 (setting [1]) and under 100 nM on SMARCA2 (HT1080 CRISPR knock-in cells). The Dmax on SMARCA4 (setting [2]) is under 50%; on SMARCA2, 70 to 90%.
